Earlier results on 1 molecule are cited in patent publication US20050202001A1 (priority 2002, published 2005).

Data set [1] deals with human melanoma cells.
Data set [2] deals with normal human neonatal melanocytes.

Regarding `COc1cccc(-c2cc(=O)c3ccccc3o2)c1N` [PD98059], the melanogenesis result in data set [1] and in data set [2] was “stimulated melanogenesis” each time.
